Reference: patent US20240336567A1, “PESTICIDAL AND HERBICIDAL COMPOUNDS AND METHODS OF USE THEREOF” (AG Plenus Ltd, priority 2021, published 2024)

Tests used:
ABUTH = experiment: In-planta LTP post-emergence, visual phenotype; format: in vivo, Abutilon theophrasti; conditions: dicot
Description: (§1) A basic panel of eight weed species (Table 3) sowed in 4×4×7 cm plastic pots containing a garden mix (klasmann). Each specie was sowed in a separate pot. In each pot, 10-15 seeds were sowed according to the specie viability. Timing of application determined at a 1-2 true leaf stage. The plants grew for 30 days in a controlled greenhouse (26±2° C. day, 20±2° C. night). Hood irrigation (tap water+Shefer 5:3:8 8 mM) was given at a 50% water content by weight. Two days before application, the tested plants thinned down to three plants per pot. Compounds were soluble in water (DDW), and commercial herbicide control was soluble in formulation B (Table 4). […] Plants were evaluated at 3 time points (4, 8, 12 days after application (DAA)). At each time point, visual phenotyping was recorded using a scale of 0-6 (0: no visible effect, 6: maximum effect). […]
(§2) Post-emergence advanced dose response experiment included 4 species: SETVI, ECHCO, AMAPA, ABUTH (Tables 3, 5). […] Plants were evaluated at 4 time points (6, 12, 18 and 26 DAA). At each time point, visual phenotyping was recorded using a scale of 0-6 (0: no visible effect, 6: maximum effect). […]
(§3) Post-emergence advanced wide panel experiment included 24 weed species (Table 5). […] Visual phenotyping was recorded at 4, 11, 17 and 20 DAA using a scale of 0-6 (0: no visible effect, 6: maximum effect). […]

ECHCO = experiment: In-planta LTP post-emergence, visual phenotype; format: in vivo, Echinochloa colona; conditions: monocot
Description: as §1, §2, §3

POAAN [1] = experiment: In-planta LTP pre-emergence, visual phenotype; format: in vivo, Poa annua; conditions: monocot; for pest or weed control at 2000 g/ha: Poa annua, 432 h, read-out: IG Inhibited growth (% effect)
Description: (§4) A basic panel of 8 weed species (Table 3) were sowed in 4×4×7 cm plastic pots containing inert sand (Sweet sand), intensively washed using osmosis water. Each specie was sowed in a separate pot. In each pot 10-15 seeds were sowed according to the specie viability. Sowing was performed one day before application. The plants were grown for 21 days in a controlled greenhouse (26±2° C. day 20±2° C. night). Hood irrigation (tap water+Shefer 5:3:8 8 mM) was given at a 50% water content by weight. Compounds were soluble in water (DDW), and commercial herbicide control was soluble in formulation B (Table 4). Application was conducted with an industrial sprayer (TeeJet 6502E nozzle) at a rate of 2 kg/ha and spray volume of […]. Pre-emergence advanced dose response experiment application was conducted at six rates between 1-0.0312 kg/ha and spray volume of […]. Percentage of emergence was evaluated at 15 DAA. Visual phenotyping was recorded using a scale of 0-6 (0: no visible effect, 6: maximum effect) at 18 DAA. All experiments included an untreated control, a solvent control and a positive control (commercial herbicide A.I.). Statistical analysis for visual phenotyping determined by a median value of ≥3.5 and Fisher test (pval≤0.05). Statistical analysis for plant emergence determined by % emergence ≥50 and T test (pval≤0.05), as well as Wilcox test (pval≤0.05).

Eragrostis teff = experiment: HTPS - Monocot - Pre-emergence; format: in vivo; conditions: N/A: not active; for Emax: read-out: HTPS - Monocot - Pre Max effect
Summary of the method: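 Pre-emergence: compound in 50% acetone applied at 30 μL/well onto sown sand (Arabidopsis or Eragrostis teff), max 1.5 Kg/Ha, 2.5-fold dilutions. Green area imaged by RGB, normalized to give % inhibition; ED50, ED75, ED90 from log-dose curves, t-test versus controls.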

AMAPA = experiment: In-planta LTP post-emergence, visual phenotype; format: in vivo, Amaranthus palmeri; conditions: dicot
Description: A basic panel of eight weed species (Table 3) sowed in 4×4×7 cm plastic pots containing a garden mix (klasmann). Each specie was sowed in a separate pot. In each pot, 10-15 seeds were sowed according to the specie viability. Timing of application determined at a 1-2 true leaf stage. The plants grew for 30 days in a controlled greenhouse (26±2° C. day, 20±2° C. night). Hood irrigation (tap water+Shefer 5:3:8 8 mM) was given at a 50% water content by weight. Two days before application, the tested plants thinned down to three plants per pot. Compounds were soluble in water (DDW), and commercial herbicide control was soluble in formulation B (Table 4). Before application, 1% (v/v) crop oil and 0.02% (v/v) surfactant (Tergitol™ 15-5-7) were added to the solution. Application was conducted with an industrial sprayer (TeeJet 6502E nozzle) at a rate of 2 kg/ha and spray volume of […]. Plants were evaluated at 3 time points (4, 8, 12 days after application (DAA)). At each time point, visual phenotyping was recorded using a scale of 0-6 (0: no visible effect, 6: maximum effect). At 12 DAA, plants foliage was harvested, dried and weighed for dry weight analysis.
Post-emergence advanced dose response experiment included 4 species: SETVI, ECHCO, AMAPA, ABUTH (Tables 3, 5). Application was conducted at six rates between 0.6-0.0187 kg/ha and spray volume of […]. Plants were evaluated at 4 time points (6, 12, 18 and 26 DAA). At each time point, visual phenotyping was recorded using a scale of 0-6 (0: no visible effect, 6: maximum effect). At 26 DAA, plants foliage was harvested, dried and weighed for dry weight analysis.
Post-emergence advanced wide panel experiment included 24 weed species (Table 5). Application was conducted at 2 rates of 2 kg/ha and 0.25 kg/ha and spray volume of […]. Visual phenotyping was recorded at 4, 11, 17 and 20 DAA using a scale of 0-6 (0: no visible effect, 6: maximum effect). At 21 DAA, plants foliage was harvested, dried, and weighed for dry weight analysis. All experiments included an untreated control, a solvent control, and a positive control (commercial herbicide A.I.). Statistical analysis for visual phenotyping determined by a median value of ≥3.5 and Fisher test (pval≤0.05). Statistical analysis for dry weight determined by % inhibition ≥50 and T test (pval≤0.05), as well as Wilcox test (pval≤0.05).

ALOMY = experiment: In-planta LTP pre-emergence, visual phenotype; format: in vivo, Alopecurus myosuroides; conditions: monocot
Description: as §4

SETVI = experiment: In-planta LTP post-emergence, visual phenotype; format: in vivo, Setaria viridis; conditions: monocot
Description: as §1, §2, §3

MATCA = experiment: In-planta LTP pre-emergence, visual phenotype; format: in vivo, Matricaria chamomilla; conditions: dicot
Description: as §4

POAAN [2] = experiment: In-planta LTP post-emergence, visual phenotype; format: in vivo, Poa annua; conditions: monocot
Description: as §1, §2, §3

Row | Compound | BL Bleaching (% effect) (ABUTH) | IG Inhibited growth (% effect) (ECHCO) | pest or weed control at 2000 g/ha (POAAN [1]) | DE Disturbed emergence (% effect) (POAAN [1]) | HTPS - Monocot - Pre ED50 (Eragrostis teff) | Emax (Eragrostis teff) | BL Bleaching (% effect) (AMAPA) | IG Inhibited growth (% effect) (ALOMY) | IG Inhibited growth (% effect) (SETVI) | IG Inhibited growth (% effect) (MATCA) | IG Inhibited growth (% effect) (AMAPA) | BL Bleaching (% effect) (ALOMY) | DAB Disturbed apical bud (% effect) (ALOMY) | DE Disturbed emergence (% effect) (ALOMY) | IG Inhibited growth (% effect) (POAAN [2])
1 | CC(N)COc1cccc(C(=O)O)c1 (stereo not drawn) [Compound 106] | BL (60) % | IG^1 (60) % | 100% | DE (100) % | 380 g/ha | 87% | BL^2 (60) % | – | – | – | – | – | – | – | –
2 | C#CCOC(=O)c1cccc(OCC(C)N)c1 (stereo not drawn) [Compound 111] | BL (40) % | – | 100% | DE (100), % | – | – | BL (40) % | IG (40) % | IG (60) % | – | – | – | – | – | –
3 | CCCCOC(=O)c1cccc(OCC(C)N)c1 (stereo not drawn) [Compound 112] | – | – | 100% | DE (100), % | – | – | – | – | – | IG (60) % | IG (60), % | – | – | – | –
4 | C[C@@H](N)COc1cccc(C(=O)O)c1 [Compound 154] | – | – | – | DE (100) % | 150 g/ha | 100% | BL (60) % | IG (80), % | IG (60) % | – | – | BL (60) % | DAB (60), % | DE (40), % | IG (60) %
